Test system: Lipid Metabolism
Experiment: Lipid metabolism in normocholesterolemic chickens fed compound in diet
Type: in vivo
Details: 20 ppm in corn control diet, 4 weeks; for HDL/LDL: control 1.413; for LDL-Cholesterol: control 76.0(±5.3); for HDL-Cholesterol: control 107.4(±7.0); for Serum Triglycerides: control 115.2(±13); for Serum Cholesterol: control 197.0(±5.2)
Experimental: Natural gamma-tocotrienol and delta-tocotrienol were evaluated for their hypocholesterolemic action in normocholesterolemic chickens and genetically hypercholesterolemic swine. Newborn male chicks (10 for each group) were raised on a standard corn-soybean-based control diet for two weeks and then were switched to either control or experimental diets for four weeks. Drug treatment consisted of the addition of gamma-tocotrienol or delta-tocotrienol to the corn-soybean-based diet at a concentration of 20 ppm. At the end of the feeding period, all the birds were fasted (about 36 hours) and refed (about 48 hours) to induce cholesterolgenic emzymes prior to sacrifice. The specific activity of HMG-CoA reductase, total serum cholesterol levels, HDL/LDL cholesterol pools, and serum triglyceride levels were examined (Table 5).
Similarly, synthetic gamma-tocotrienol was administered to male chicks at 50 ppm using the same protocol except HMG-CoA reductase levels were not determined.

SMILES	HDL-Cholesterol [% of Control] [%]	LDL-Cholesterol [% of Control] [%]	Serum Cholesterol [% of Control] [%]	Serum Triglycerides [% of Control] [%]	HDL/LDL	LDL-Cholesterol	HDL-Cholesterol	Serum Triglycerides	Serum Cholesterol
CC(C)=CCC/C(C)=C/CC/C(C)=C/CC[C@]1(C)CCc2cc(O)c(C)c(C)c2O1 [d-γ-tocotrienol]	95.3	56.7	76.4	82.8	1.669	43.1(±8.3) mg/dl	102.3(±4.5) mg/dl	95.4(±5.9) mg/dl	150.5(±4.2) mg/dl
CC(C)=CCC/C(C)=C/CC/C(C)=C/CC[C@]1(C)CCc2cc(O)cc(C)c2O1 [d-δ-tocotrienol]	91.9	53.7	71.5	77.0	2.419	40.8(±6.6) mg/dl	98.7(±8.4) mg/dl	88.7(±7.3) mg/dl	140.9(±3.1) mg/dl

— EP0421419A2, “Tocotrienols in the treatment of hypercholesterolemia, hyperlipidemia and thromboembolic disorders” (Bristol-Myers Squibb Company, priority 1989, dated 1991)
